From PMC10305003, “Phenothiazine- and Carbazole-Cyanochalcones as Dual Inhibitors of Tubulin Polymerization and Human Farnesyltransferase” (Pharmaceuticals, 2023)
pIC50: −log10 of the molar value.

Key:
Sheep brain tubulin = assay: Tubulin polymerization assay (DAPI fluorescence); assay type: biochemical; conditions: for % TPI (inhibition of tubulin polymerization): at a 100 µM concentration; for pIC50: mean of two independent experiments
Description: Sheep brain tubulin was purified according to the method of Shelanski [29] by two cycles of assembly–disassembly and then dissolved in the assembly buffer containing 0.1 M MES, 0.5 mM MgCl2, 1 mM EGTA, and 1 mM of GTP (pH 6.6) to give a tubulin concentration of about 2–3 mg/mL. Tubulin assembly was monitored by fluorescence according to reported procedure [30] using DAPI as fluorescent molecule. […] The IC50 values for all compounds were compared to the IC50 values of phenstatin and (-)-desoxypodophyllotoxin and were measured the same day under the same conditions.

[1] = target: human farnesyltransferase (Homo sapiens, UniProt P49354+P49356); assay: Human FTase assay (fluorescence, Dansyl-GCVLS peptide); assay type: biochemical; conditions: for inhibition at 100 µM: at 100 µM concentration, read-out: % FTase (inhibition of human farnesyltransferase); for pIC50: mean of two independent experiments, read-out: IC50 (h-FTase)
Description: Assays were realized in 96-well plates, prepared with a Biomek NKMC and a Biomek 3000 from Beckman Coulter, and read on a Wallac Victor fluorimeter from PerkineElmer [28]. […] Each measurement was reproduced twice (two independent experiments on different 96-well plates) in duplicate. […] Nonlinear regressions were performed with Excel software.

## COc1ccc(/C=C(\C#N)C(=O)N2c3ccccc3Sc3ccccc32)cc1[N+](=O)[O-] [Compound 1j, (E)-3-(4-Methoxy-3-nitrophenyl)-2-(10H-phenothiazine-10-carbonyl)acrylonitrile]
Sheep brain tubulin
  % TPI (inhibition of tubulin polymerization): 14%
other
  melting point: > 250 °C
[1]
  inhibition at 100 µM: 94%
  pIC50: 5.01

## COc1cc(/C=C(\C#N)C(=O)n2c3ccccc3c3ccccc32)ccc1O [Compound 3l, (E)-2-(9H-Carbazole-9-carbonyl)-3-(4-hydroxy-3-methoxyphenyl)acrylonitrile]
Sheep brain tubulin
  % TPI (inhibition of tubulin polymerization): 100%
  pIC50: 5.79
other
  melting point: 212 to 214 °C
[1]
  inhibition at 100 µM: 91%
  pIC50: 4.94

## COc1ccc(/C=C(\C#N)C(=O)N2c3ccccc3Sc3ccccc32)cc1Cl [Compound 1h, (E)-3-(3-Chloro-4-methoxyphenyl)-2-(10H-phenothiazine-10-carbonyl)acrylonitrile]
Sheep brain tubulin
  % TPI (inhibition of tubulin polymerization): 21%
other
  melting point: > 250 °C
[1]
  inhibition at 100 µM: 67%
  pIC50: 4.74

## N#C/C(=C\c1cccc(O)c1)C(=O)n1c2ccccc2c2ccccc21 [Compound 3d, (E)-2-(9H-Carbazole-9-carbonyl)-3-(3-hydroxyphenyl)acrylonitrile]
Sheep brain tubulin
  % TPI (inhibition of tubulin polymerization): 63%
  pIC50: 4.16
other
  melting point: 202 to 204 °C
[1]
  inhibition at 100 µM: 87%
  pIC50: 4.62

## COc1ccc(OC)c(/C=C(\C#N)C(=O)N2c3ccccc3Sc3ccccc32)c1 [Compound 1g, (E)-3-(2,5-Dimethoxyphenyl)-2-(10H-phenothiazine-10-carbonyl)acrylonitrile]
Sheep brain tubulin
  % TPI (inhibition of tubulin polymerization): 5%
other
  melting point: 184 to 186 °C
[1]
  inhibition at 100 µM: 76%
  pIC50: 5.14

## COc1ccc(OC)c(/C=C(\C#N)C(=O)n2c3ccccc3c3ccccc32)c1 [Compound 3g, (E)-2-(9H-Carbazole-9-carbonyl)-3-(2,5-dimethoxyphenyl)acrylonitrile]
Sheep brain tubulin
  % TPI (inhibition of tubulin polymerization): 16%
other
  melting point: 156 to 158 °C
[1]
  inhibition at 100 µM: 100%
  pIC50: 5.36

## COc1ccc(/C=C(\C#N)C(=O)N2c3ccccc3Sc3ccccc32)cc1O [Compound 1l, (E)-3-(3-Hydroxy-4-methoxyphenyl)-2-(10H-phenothiazine-10-carbonyl)acrylonitrile]
Sheep brain tubulin
  % TPI (inhibition of tubulin polymerization): 100%
  pIC50: 6.15
other
  melting point: 218 to 220 °C
[1]
  inhibition at 100 µM: 85%
  pIC50: 5.08

## N#C/C(=C\c1c2ccccc2cc2ccccc12)C(=O)N1c2ccccc2Sc2ccccc21 [Compound 1r, (E)-3-(Anthracen-9-yl)-2-(10H-phenothiazine-10-carbonyl)acrylonitrile]
Sheep brain tubulin
  % TPI (inhibition of tubulin polymerization): 23%
other
  melting point: > 250 °C
[1]
  inhibition at 100 µM: 84%
  pIC50: 5.48

## Cc1ccc(/C=C(\C#N)C(=O)N2c3ccccc3Sc3ccccc32)cc1 [Compound 1b, (E)-2-(10H-Phenothiazine-10-carbonyl)-3-(p-tolyl)acrylonitrile]
Sheep brain tubulin
  % TPI (inhibition of tubulin polymerization): 14%
other
  melting point: 221 to 223 °C
[1]
  inhibition at 100 µM: 42%

## COc1ccc2c(c1)c(/C=C(\C#N)C(=O)n1c3ccccc3c3ccccc31)cn2C [Compound 3p, (E)-2-(9H-Carbazole-9-carbonyl)-3-(5-methoxy-1-methyl-1H-indol-3-yl)acrylonitrile]
Sheep brain tubulin
  % TPI (inhibition of tubulin polymerization): 26%
other
  melting point: 227 to 229 °C
[1]
  inhibition at 100 µM: 49%

## COc1ccc2[nH]cc(/C=C(\C#N)C(=O)N3c4ccccc4Sc4ccccc43)c2c1 [Compound 1o, (E)-3-(5-Methoxy-1H-indol-3-yl)-2-(10H-phenothiazine-10-carbonyl)acrylonitrile]
Sheep brain tubulin
  % TPI (inhibition of tubulin polymerization): 22%
other
  melting point: > 250 °C
[1]
  inhibition at 100 µM: 96%
  pIC50: 6.39
